Tested on: DMS 114 tumor spheroids, viability % test/control
Experiment: Anticancer human tumor DMS 114 cell line growth inhibition;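 also: spheroids exposed to compounds for 7 days before read-out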;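 as to viability, T/C: luminescence used as a proxy for viable cells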
Details: spheroids with HUVEC and MSC; for IC50: curve of first compound; for viability, T/C: stronger effect = lower value
Procedure, shortened: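 Complex tumor spheroids combined malignant cells with endothelial cells and mesenchymal stem cells. DNA-damaging drugs and DNA repair inhibitors were tested alone and in combination, at half-log dilutions down from clinical Cmax (top 10 microM if Cmax unknown), 0.25% DMSO final.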

[1] = second compound 1 µM, first compound 0.00949 µM
[2] = second compound 1 µM, first compound 0.03 µM
[3] = second compound 1 µM, first compound 0.0949 µM
[4] = second compound 1 µM, first compound 0.3 µM
[5] = second compound 1 µM, first compound 0.949 µM
[6] = second compound 1 µM, first compound 3 µM
[7] = second compound 3.16 µM, first compound 0.00949 µM
[8] = second compound 3.16 µM, first compound 0.03 µM
[9] = second compound 3.16 µM, first compound 0.0949 µM
[10] = second compound 3.16 µM, first compound 0.3 µM
[11] = second compound 3.16 µM, first compound 0.949 µM
[12] = second compound 3.16 µM, first compound 3 µM
[13] = second compound 10 µM, first compound 0.00949 µM
[14] = second compound 10 µM, first compound 0.03 µM
[15] = second compound 10 µM, first compound 0.0949 µM
[16] = second compound 10 µM, first compound 0.3 µM
[17] = second compound 10 µM, first compound 0.949 µM
[18] = second compound 10 µM, first compound 3 µM
[19] = second compound 31.6 µM, first compound 0.00949 µM
[20] = second compound 31.6 µM, first compound 0.03 µM
[21] = second compound 31.6 µM, first compound 0.0949 µM
[22] = second compound 31.6 µM, first compound 0.3 µM
[23] = second compound 31.6 µM, first compound 0.949 µM
[24] = second compound 31.6 µM, first compound 3 µM
[25] = second compound 100 µM, first compound 0.00949 µM
[26] = second compound 100 µM, first compound 0.03 µM
[27] = second compound 100 µM, first compound 0.0949 µM
[28] = second compound 100 µM, first compound 0.3 µM
[29] = second compound 100 µM, first compound 0.949 µM
[30] = second compound 100 µM, first compound 3 µM
[31] = second compound 1 µM, first compound 0.0316 µM
[32] = second compound 1 µM, first compound 0.1 µM
[33] = second compound 1 µM, first compound 0.316 µM
[34] = second compound 1 µM, first compound 1 µM
[35] = second compound 1 µM, first compound 3.16 µM
[36] = second compound 1 µM, first compound 10 µM
[37] = second compound 3.16 µM, first compound 0.0316 µM
[38] = second compound 3.16 µM, first compound 0.1 µM
[39] = second compound 3.16 µM, first compound 0.316 µM
[40] = second compound 3.16 µM, first compound 1 µM
[41] = second compound 3.16 µM, first compound 3.16 µM
[42] = second compound 3.16 µM, first compound 10 µM
[43] = second compound 10 µM, first compound 0.0316 µM
[44] = second compound 10 µM, first compound 0.1 µM
[45] = second compound 10 µM, first compound 0.316 µM
[46] = second compound 10 µM, first compound 1 µM
[47] = second compound 10 µM, first compound 3.16 µM
[48] = second compound 10 µM, first compound 10 µM
[49] = second compound 31.6 µM, first compound 0.0316 µM
[50] = second compound 31.6 µM, first compound 0.1 µM
[51] = second compound 31.6 µM, first compound 0.316 µM
[52] = second compound 31.6 µM, first compound 1 µM
[53] = second compound 31.6 µM, first compound 3.16 µM
[54] = second compound 31.6 µM, first compound 10 µM
[55] = second compound 100 µM, first compound 0.0316 µM
[56] = second compound 100 µM, first compound 0.1 µM
[57] = second compound 100 µM, first compound 0.316 µM
[58] = second compound 100 µM, first compound 1 µM
[59] = second compound 100 µM, first compound 3.16 µM
[60] = second compound 100 µM, first compound 10 µM

CNCc1ccc(-c2cc(-c3nc(-c4ccc(S(=O)(=O)C(C)C)cc4)cnc3N)on2)cc1 + Cn1nnc2c(C(N)=O)ncn2c1=O
IC50 (second compound 1 µM): 186 nM
IC50 (second compound 3.16 µM): 178 nM
IC50 (second compound 10 µM): 175 nM
IC50 (second compound 31.6 µM): 161 nM
IC50 (second compound 100 µM): 91.6 nM
viability, T/C [1]: 103%
viability, T/C [2]: 94.4%
viability, T/C [3]: 80.9%
viability, T/C [4]: 28.3%
viability, T/C [5]: 5.64%
viability, T/C [6]: 0.18%
viability, T/C [7]: 102%
viability, T/C [8]: 103%
viability, T/C [9]: 77.6%
viability, T/C [10]: 27%
viability, T/C [11]: 3.9%
viability, T/C [12]: 0.24%
viability, T/C [13]: 101%
viability, T/C [14]: 99.3%
viability, T/C [15]: 72.7%
viability, T/C [16]: 30.2%
viability, T/C [17]: 2.75%
viability, T/C [18]: 0.19%
viability, T/C [19]: 114%
viability, T/C [20]: 92%
viability, T/C [21]: 75.8%
viability, T/C [22]: 22.4%
viability, T/C [23]: 2.81%
viability, T/C [24]: 0.23%
viability, T/C [25]: 89.7%
viability, T/C [26]: 83.3%
viability, T/C [27]: 47.4%
viability, T/C [28]: 16.1%
viability, T/C [29]: 2.42%
viability, T/C [30]: 0.69%

Cc1cc(C)c(CNC(=O)c2cc(-c3ccc(CN4CCOCC4)cc3)cc3c2cnn3C2CCCC2)c(=O)[nH]1 + Cn1nnc2c(C(N)=O)ncn2c1=O
IC50 (second compound 1 µM): > 10000 nM
IC50 (second compound 3.16 µM): > 10000 nM
IC50 (second compound 10 µM): > 10000 nM
IC50 (second compound 31.6 µM): > 10000 nM
IC50 (second compound 100 µM): > 10000 nM
viability, T/C [31]: 100%
viability, T/C [32]: 103%
viability, T/C [33]: 104%
viability, T/C [34]: 110%
viability, T/C [35]: 110%
viability, T/C [36]: 64.3%
viability, T/C [37]: 110%
viability, T/C [38]: 108%
viability, T/C [39]: 108%
viability, T/C [40]: 114%
viability, T/C [41]: 120%
viability, T/C [42]: 69.3%
viability, T/C [43]: 110%
viability, T/C [44]: 106%
viability, T/C [45]: 111%
viability, T/C [46]: 115%
viability, T/C [47]: 120%
viability, T/C [48]: 65.9%
viability, T/C [49]: 113%
viability, T/C [50]: 107%
viability, T/C [51]: 109%
viability, T/C [52]: 111%
viability, T/C [53]: 103%
viability, T/C [54]: 65.1%
viability, T/C [55]: 103%
viability, T/C [56]: 103%
viability, T/C [57]: 98.8%
viability, T/C [58]: 90.1%
viability, T/C [59]: 80.4%
viability, T/C [60]: 51.6%

Cc1sc2c(c1C)C(c1ccc(Cl)cc1)=NC(CC(=O)Nc1ccc(O)cc1)c1nnc(C)n1-2 (stereo not given) + Cn1nnc2c(C(N)=O)ncn2c1=O
IC50 (second compound 1 µM): 158 nM
IC50 (second compound 3.16 µM): 194 nM
IC50 (second compound 10 µM): 170 nM
IC50 (second compound 31.6 µM): 167 nM
IC50 (second compound 100 µM): 116 nM
viability, T/C [1]: 98.8%
viability, T/C [2]: 101%
viability, T/C [3]: 64.5%
viability, T/C [4]: 29.9%
viability, T/C [5]: 11.3%
viability, T/C [6]: 6.69%
viability, T/C [7]: 104%
viability, T/C [8]: 103%
viability, T/C [9]: 81.4%
viability, T/C [10]: 30.7%
viability, T/C [11]: 10.7%
viability, T/C [12]: 6.68%
viability, T/C [13]: 102%
viability, T/C [14]: 108%
viability, T/C [15]: 71.6%
viability, T/C [16]: 28.1%
viability, T/C [17]: 10.7%
viability, T/C [18]: 4.92%
viability, T/C [19]: 114%
viability, T/C [20]: 100%
viability, T/C [21]: 71%
viability, T/C [22]: 28.6%
viability, T/C [23]: 9.45%
viability, T/C [24]: 4.67%
viability, T/C [25]: 93.9%
viability, T/C [26]: 93%
viability, T/C [27]: 55.1%
viability, T/C [28]: 18.9%
viability, T/C [29]: 6.62%
viability, T/C [30]: 2.68%

Cn1ncnc1[C@H]1c2n[nH]c(=O)c3cc(F)cc(c23)N[C@@H]1c1ccc(F)cc1 + Cn1nnc2c(C(N)=O)ncn2c1=O
IC50 (second compound 1 µM): 696 nM
IC50 (second compound 3.16 µM): 646 nM
IC50 (second compound 10 µM): 208 nM
IC50 (second compound 31.6 µM): < 9.49 nM
IC50 (second compound 100 µM): < 9.49 nM
viability, T/C [1]: 106%
viability, T/C [2]: 107%
viability, T/C [3]: 98.8%
viability, T/C [4]: 82.6%
viability, T/C [5]: 37.9%
viability, T/C [6]: 11.6%
viability, T/C [7]: 112%
viability, T/C [8]: 107%
viability, T/C [9]: 97.2%
viability, T/C [10]: 77.2%
viability, T/C [11]: 36%
viability, T/C [12]: 14%
viability, T/C [13]: 111%
viability, T/C [14]: 82.7%
viability, T/C [15]: 65.8%
viability, T/C [16]: 43.4%
viability, T/C [17]: 27.1%
viability, T/C [18]: 16.2%
viability, T/C [19]: 51.5%
viability, T/C [20]: 39.3%
viability, T/C [21]: 32.4%
viability, T/C [22]: 27.6%
viability, T/C [23]: 20.7%
viability, T/C [24]: 10.8%
viability, T/C [25]: 24.1%
viability, T/C [26]: 23.1%
viability, T/C [27]: 22.3%
viability, T/C [28]: 19.4%
viability, T/C [29]: 14.9%
viability, T/C [30]: 9.45%

[2H]c1nc(C)nc([2H])c1-c1cc(NC[C@@H](C)c2cccc3c(C(=O)NC)ccnc23)ncn1 + Cn1nnc2c(C(N)=O)ncn2c1=O
IC50 (second compound 1 µM): > 10000 nM
IC50 (second compound 3.16 µM): > 10000 nM
IC50 (second compound 10 µM): > 10000 nM
IC50 (second compound 31.6 µM): > 10000 nM
IC50 (second compound 100 µM): > 10000 nM
viability, T/C [31]: 94.5%
viability, T/C [32]: 104%
viability, T/C [33]: 98.4%
viability, T/C [34]: 99.5%
viability, T/C [35]: 97.3%
viability, T/C [36]: 98.5%
viability, T/C [37]: 108%
viability, T/C [38]: 100%
viability, T/C [39]: 99.7%
viability, T/C [40]: 102%
viability, T/C [41]: 99.9%
viability, T/C [42]: 101%
viability, T/C [43]: 110%
viability, T/C [44]: 109%
viability, T/C [45]: 98.2%
viability, T/C [46]: 110%
viability, T/C [47]: 95.5%
viability, T/C [48]: 94.8%
viability, T/C [49]: 104%
viability, T/C [50]: 99%
viability, T/C [51]: 113%
viability, T/C [52]: 107%
viability, T/C [53]: 110%
viability, T/C [54]: 95.2%
viability, T/C [55]: 93.3%
viability, T/C [56]: 105%
viability, T/C [57]: 98.3%
viability, T/C [58]: 94.7%
viability, T/C [59]: 84.7%
viability, T/C [60]: 87.6%
